From US9255100B2 (BAYER INTELLECTUAL PROPERTY GMBH, priority 2010, dated 2016) come the findings set out here.

Structures are written as SMILES. Values joined by “and” are separate entries in the source; they are usually repeats but may differ in a detail not shown here. Identical values can stand only once.

For this test, the target named is T1, N-terminally GST-tagged human full length recombinant Mps-1 kinase (Homo sapiens, UniProt P33981).
T1 construct: N-terminally GST-tagged human full length recombinant Mps-1 kinase; purchased Invitrogen, Karslruhe, Germany PV4071
T1 sequence (P33981 1-857): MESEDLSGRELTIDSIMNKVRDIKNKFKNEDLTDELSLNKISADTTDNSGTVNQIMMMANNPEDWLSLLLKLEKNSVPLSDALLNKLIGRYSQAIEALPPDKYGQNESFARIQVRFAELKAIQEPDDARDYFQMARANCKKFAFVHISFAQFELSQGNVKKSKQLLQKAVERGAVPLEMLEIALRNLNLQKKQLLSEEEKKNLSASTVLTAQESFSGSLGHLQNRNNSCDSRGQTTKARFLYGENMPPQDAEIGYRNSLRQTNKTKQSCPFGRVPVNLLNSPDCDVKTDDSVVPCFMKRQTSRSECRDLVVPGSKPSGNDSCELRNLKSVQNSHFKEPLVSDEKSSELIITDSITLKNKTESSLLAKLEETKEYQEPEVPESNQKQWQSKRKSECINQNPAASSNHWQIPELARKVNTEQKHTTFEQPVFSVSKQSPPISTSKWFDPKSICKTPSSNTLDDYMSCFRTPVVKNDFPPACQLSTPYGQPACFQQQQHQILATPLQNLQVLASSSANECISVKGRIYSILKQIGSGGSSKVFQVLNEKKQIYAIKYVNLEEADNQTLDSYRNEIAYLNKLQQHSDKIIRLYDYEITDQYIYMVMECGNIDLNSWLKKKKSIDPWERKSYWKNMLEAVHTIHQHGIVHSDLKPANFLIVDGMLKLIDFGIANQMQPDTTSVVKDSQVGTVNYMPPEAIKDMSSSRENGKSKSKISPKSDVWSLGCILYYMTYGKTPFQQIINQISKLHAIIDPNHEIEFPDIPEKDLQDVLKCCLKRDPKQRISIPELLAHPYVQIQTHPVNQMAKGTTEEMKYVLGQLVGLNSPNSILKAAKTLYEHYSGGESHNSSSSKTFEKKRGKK
The experiment in a line: Mps-1 kinase assay (TR-FRET). The settings on record: Mps1 IC50 [nM], 10 μM ATP, 1 μM peptide substrate, 60 min at 22° C. The test is classed as biochemical. A digest of the protocol:
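Compounds were tested against recombinant full-length Mps-1 bearing an N-terminal GST tag, about 1 nM final, with a biotinylated amide-capped peptide as substrate. Detection reagents were then bound for 1 h at 22° C and the product read by TR-FRET.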
Background: TR-FRET usually uses a lanthanide donor and a delayed reading to cut background.
For orientation: IC50 means the concentration that inhibits the measured activity by half. Turning to `Cc1cc(-c2cnc3c(NCC4CNC4)cc(Oc4cncc(F)c4)nn23)ccc1C(=O)NC1CC1` [Example 544, 4-{8-[(azetidin-3-ylmethyl)amino]-6-[(5-fluoropyridin-3-yl)oxy]imidazo[1,2-b]pyridazin-3-yl}-N-cyclopropyl-2-methylbenzamide], the half-maximal inhibitory concentration (IC50) turned out to be 1.1 nM.
`Cc1cc(-c2cnc3c(NCCC(F)(F)F)cc(-c4ccnn4C)nn23)ccc1C(=O)NC1CC1` [Example 10, N-cyclopropyl-2-methyl-4-{6-(1-methyl-1H-pyrazol-5-yl)-8-[(3,3,3-trifluoropropyl)amino]imidazo[1,2-b]pyridazin-3-yl}benzamide]: the IC50 was below 1 nM.
As to `Cc1cc(-c2cnc3c(NCC4CCS(=O)(=O)CC4)cc(Oc4cccnc4)nn23)ccc1C(=O)NC1CC1` [Example 296A, N-cyclopropyl-4-[8-{[(1,1-dioxidotetrahydro-2H-thiopyran-4-yl)methyl]amino}-6-(pyridin-3-yloxy)imidazo[1,2-b]pyridazin-3-yl]-2-methylbenzamide], the half-maximal inhibitory concentration (IC50) is 0.5 nM.
The result for `COc1ccccc1Sc1cc(NCC(C)(C)O)c2ncc(-c3ccc(C(=O)NC4CC4)c(C)c3)n2n1` [Example 73B, N-cyclopropyl-4-{8-[(2-hydroxy-2-methylpropyl)amino]-6-[(2-methoxyphenyl)sulfanyl]imidazo[1,2-b]pyridazin-3-yl}-2-methylbenzamide] reads 3.8 nM; that for `CC(C)CNc1cc(-c2cncc3ccccc23)nn2c(-c3ccc(C(=O)NC4CC4)cc3)cnc12` [Example 115, N-cyclopropyl-4-{6-(isoquinolin-4-yl)-8-[(2-methylpropyl)amino]imidazo[1,2-b]pyridazin-3-yl}benzamide], 27.5 nM; that for `CC(C)CNc1cc(Cl)nn2c(-c3ccc4c(NC5CC5)noc4c3)cnc12` [Example 183, 6-Chloro-3-[3-(cyclopropylamino)-1,2-benzoxazol-6-yl]-N-(2-methylpropyl)imidazo[1,2-b] pyridazin-8-amine], 290 nM.
For `Cc1cc(-c2cnc3c(NCCC(F)(F)F)cc(Oc4ccccc4O)nn23)ccc1C(=O)NC1CC1` [Example 280, N-cyclopropyl-4-{6-(2-hydroxyphenoxy)-8-[(3,3,3-trifluoropropyl)amino]imidazo[1,2-b]pyridazin-3-yl}-2-methylbenzamide], the 50% inhibitory concentration (IC50) turned out to be 0.1 nM.
The result for `CNC(=O)c1ccc(-c2cnc3c(NCC4CCOCC4)cc(Oc4ccc(OC)cc4F)nn23)cc1C` [Example 571, 4-{6-(2-fluoro-4-methoxyphenoxy)-8-[(tetrahydro-2H-pyran-4-ylmethyl)amino]imidazo[1,2-b]pyridazin-3-yl}-N,2-dimethylbenzamide] reads below 1 nM; that for `CCNC(=O)c1ccc(-c2cnc3c(NCCC(F)(F)F)cc(Oc4ccc(OC)cc4F)nn23)cc1C` [Example 602, N-ethyl-4-{6-(2-fluoro-4-methoxyphenoxy)-8-[(3,3,3-trifluoropropyl)a-mino]imidazo[1,2-b]pyridazin-3-yl}-2-methylbenzamide], below 1 nM; that for `CC(C)CNc1cc(-c2ccc(C(F)(F)F)cc2)nn2c(-c3ccc(C(=O)NC4CC4)cc3)cnc12` [Example 123, N-cyclopropyl-4-{8-[(2-methylpropyl)amino]-6-[4-(trifluoromethyl)phenyl]imidazo[1,2-b]pyridazin-3-yl}benzamide], 7.6 nM.
Turning to `Cc1cc(-c2cnc3c(NCCC(F)(F)F)cc(Sc4ccccc4F)nn23)ccc1C(=O)NC1CC1` [Example 268, N-cyclopropyl-4-{6-[(2-fluorophenyl)sulfanyl]-8-[(3,3,3-trifluoropropyl)amino]imidazo[1,2-b]pyridazin-3-yl}-2-methylbenzamide], the IC50 was 0.2 nM.
As for `Cc1cc(-c2cnc3c(NCCC(F)(F)F)cc(Nc4ccc(F)cc4O)nn23)ccc1C(=O)NC1CC1` [Example 396, N-cyclopropyl-4-{6-[(4-fluoro-2-hydroxyphenyl)amino]-8-[(3,3,3-trifluoropropyl)amino]imidazo[1,2-b]pyridazin-3-yl}-2-methylbenzamide], the half-inhibitory concentration (IC50) is 0.1 nM and 0.3 nM.
The result for `Cc1ccccc1Oc1cc(NCCC(F)(F)F)c2ncc(-c3ccc(C(=O)NC4CC4)c(C)c3)n2n1` [Example 474, N-cyclopropyl-2-methyl-4-{6-(2-methylphenoxy)-8-[(3,3,3-trifluoro-propyl)amino]imidazo [1,2-b]pyridazin-3-yl} benzamide] reads 0.3 nM; that for `Cc1cc(-c2cnc3c(NCC4CCSCC4)cc(Sc4cccc(O)c4)nn23)ccc1C(=O)NC1CC1` [Example 287, N-cyclopropyl-4-{6-[(3-hydroxyphenyl)sulfanyl]-8-[(tetrahydro-2H-thiopyran-4-ylmethyl)amino]imidazo[1,2-b]pyridazin-3-yl}-2-methylbenzamide], 0.3 nM.
With `Cc1ccc(F)cc1Sc1cc(NCC(C)(C)O)c2ncc(-c3ccc(C(=O)NC4CC4)c(C)c3)n2n1` [Example 64, N-cyclopropyl-4-{6-[(5-fluoro-2-methylphenyl)sulfanyl]-8-[(2-hydroxy-2-methylpropyl)amino]imidazo[1,2-b]pyridazin-3-yl}-2-methylbenzamide], the IC50 amounted to 0.1 nM.
The result for `Cc1cc(F)cc(Sc2cc(NCCCC(F)(F)F)c3ncc(-c4ccc(C(=O)NC5CC5)c(C)c4)n3n2)c1` [Example 449, N-cyclopropyl-4-{6-[(3-fluoro-5-methylphenyl)sulfanyl]-8-[(4,4,4-trifluorobutyl)amino]imidazo[1,2-b]pyridazin-3-yl}-2-methylbenzamide] reads 0.6 nM.
As for `C=Cc1cc(NCC(C)(C)O)c2ncc(-c3ccc(C(=O)NC4CC4)c(C)c3)n2n1` [Example 40, N-cyclopropyl-4-{8-[(2-hydroxy-2-methylpropyl)amino]-6-vinylimidazo[1,2-b]pyridazin-3-yl}-2-methylbenzamide], the IC50 stood at 111 nM.
In the case of `Cc1cc(-c2cnc3c(NCCC(F)(F)F)cc(Nc4ccccc4O)nn23)ccc1C(=O)NC1CC1` [Example 399, N-cyclopropyl-4-{6-[(2-hydroxyphenyl)amino]-8-[(3,3,3-trifluoropropyl)amino]imidazo[1,2-b]pyridazin-3-yl}-2-methylbenzamide] it was 0.1 nM; in that of `Cc1cc(-c2cnc3c(NCCC(F)(F)F)cc(-c4ccc(F)cc4)nn23)ccc1C(=O)NC1CC1` [Example 28, N-cyclopropyl-4-{6-(4-fluorophenyl)-8-[(3,3,3-trifluoropropyl)amino]imidazo[1,2-b]pyridazin-3-yl}-2-methylbenzamide], below 1 nM; in that of `CCNC(=O)c1ccc(-c2cnc3c(NCCOC)cc(Oc4ccc(F)c(F)c4)nn23)cc1C` [Example 607, 4-{6-(3,4-difluorophenoxy)-8-[(2-methoxyethyl)a-mino]imidazo[1,2-b]pyridazin-3-yl}-N-ethyl-2-methylbenzamide], 3.7 nM.
The result for `CC(C)CNc1cc(Cl)nn2c(-c3ccc(C(=O)NC4CC4)c(Cl)c3)cnc12` [Example 181, 2-Chloro-4-{6-chloro-8-[(2-methylpropyl)amino]imidazo[1,2-b]pyridazin-3-yl}-N-cyclopropyl-benzamide] reads 39.9 nM.
Consider `COc1ccc(Oc2cc(NCCS(C)(=O)=O)c3ncc(-c4ccc(C(=O)NC5CC5)c(C)c4)n3n2)c(F)c1` [Example 519, N-cyclopropyl-4-[6-(2-fluoro-4-methoxyphenoxy)-8-{[2-(methylsulfonyl)ethyl]amino]imidazo [1,2-b]pyridazin-3-yl]-2-methylbenzamide], for which the IC50 turned out to be 0.1 nM.
On to `COc1ccccc1Nc1cc(NCC(C)(C)O)c2ncc(-c3ccc(C(=O)NC4CC4)c(C)c3)n2n1` [Example 402, N-cyclopropyl-4-{8-[(2-hydroxy-2-methylpropyl)amino]-6-[(2-methoxyphenyl)amino]imidazo[1,2-b]pyridazin-3-yl}-2-methylbenzamide], for which the concentration for half-maximal inhibition (IC50) worked out at 3.4 nM.
In the case of `CSc1cc(NCC(C)C)c2ncc(-c3ccc(C(=O)NC4CC4)c(C)c3)n2n1` [Example 196, N-cyclopropyl-2-methyl-4-{8-[(2-methylpropyl)amino]-6-(methylsulfanyl)imidazo[1,2-b]pyridazin-3-yl}benzamide] it was 2.7 nM; in that of `C=C(c1ccccc1)c1cc(NCCC(F)(F)F)c2ncc(-c3ccc(C(=O)NC4CC4)c(C)c3)n2n1` [Example 482, N-cyclopropyl-2-methyl-4-{6-(1-phenylethenyl)-8-[(3,3,3-trifluoropropyl)amino]imidazo[1,2-b]pyridazin-3-yl}benzamide], 0.6 nM.
